From US20260210939A1, “MODIFIED OLFACTORY RECEPTORS” (GIVAUDAN SA, priority 2022, published 2026)
Like-named read-outs stand apart in the source and are kept apart here. One block for each molecule: values may come before it.

Tests used:
[1] = target: human class II OR identified in the library screening (Homo sapiens, UniProt Q8NGX5)
Target sequence in this assay (Q8NGX5 whole entry, the tested form may be a part): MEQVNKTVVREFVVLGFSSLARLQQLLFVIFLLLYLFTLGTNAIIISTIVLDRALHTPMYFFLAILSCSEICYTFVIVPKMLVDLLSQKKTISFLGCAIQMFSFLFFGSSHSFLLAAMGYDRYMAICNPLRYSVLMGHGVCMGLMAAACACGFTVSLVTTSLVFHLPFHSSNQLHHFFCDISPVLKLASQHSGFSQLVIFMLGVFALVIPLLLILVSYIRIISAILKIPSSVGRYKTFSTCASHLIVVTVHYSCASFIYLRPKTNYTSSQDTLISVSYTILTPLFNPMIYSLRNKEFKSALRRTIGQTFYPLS
Protocol: (§1) Selected ligand—OR pairs were then tested in a confirmatory test with a dose response analysis.
(§2) For selected receptors, the wild-type sequence was synthesized and cloned into pcDNA3.1 (+). Dose-response analysis with the cognate ligand was then performed for both the wild-type and the modified sequence.

[2] = target: human class II OR identified in the library screening (Homo sapiens, UniProt Q9Y4A9)
Target sequence in this assay (Q9Y4A9 whole entry, the tested form may be a part): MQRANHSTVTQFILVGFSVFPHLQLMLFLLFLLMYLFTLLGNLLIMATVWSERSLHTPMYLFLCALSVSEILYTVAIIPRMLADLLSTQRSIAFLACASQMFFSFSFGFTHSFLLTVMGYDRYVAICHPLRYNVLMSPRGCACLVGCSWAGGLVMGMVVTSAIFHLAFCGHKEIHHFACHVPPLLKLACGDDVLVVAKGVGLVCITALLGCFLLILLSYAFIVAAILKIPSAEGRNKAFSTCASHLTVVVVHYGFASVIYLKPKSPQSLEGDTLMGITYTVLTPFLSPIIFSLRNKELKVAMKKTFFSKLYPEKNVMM
Protocol: as §1, §2

[3] = target: human class II OR identified in the library screening (Homo sapiens, UniProt Q8NGX5); experiment: Confirmatory dose-response analysis of library-hit OR with cognate ligand, wild-type vs C-terminal domain SEQ ID NO: 221 (Table 17); conditions: read-out: Potency, EC50 changed C-term; OR10K1, modified C-terminus SEQ ID NO: 221 (SEQ ID NO: 687);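 also: Wild-type receptor sequences expressed from the pcDNA3.1(+) vector and compared with the C-terminally modified receptors in dose-response tests using each receptor's cognate ligand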
Target sequence in this assay (Q8NGX5 1-292): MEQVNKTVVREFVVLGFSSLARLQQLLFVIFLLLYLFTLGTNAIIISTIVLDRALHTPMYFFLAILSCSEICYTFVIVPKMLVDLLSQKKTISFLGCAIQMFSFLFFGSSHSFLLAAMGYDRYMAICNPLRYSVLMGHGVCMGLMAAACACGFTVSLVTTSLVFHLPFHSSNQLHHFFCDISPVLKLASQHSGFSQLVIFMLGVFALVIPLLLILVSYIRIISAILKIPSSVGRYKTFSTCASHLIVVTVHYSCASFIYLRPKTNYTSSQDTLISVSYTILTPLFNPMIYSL
Protocol: as §1, §2

[4] = target: human class II OR identified in the library screening (Homo sapiens, UniProt Q9Y4A9); experiment: as above; conditions: read-out: Potency, EC50 changed C-term; OR10H1, modified C-terminus SEQ ID NO: 221 (SEQ ID NO: 679)
Target sequence in this assay (Q9Y4A9 1-297): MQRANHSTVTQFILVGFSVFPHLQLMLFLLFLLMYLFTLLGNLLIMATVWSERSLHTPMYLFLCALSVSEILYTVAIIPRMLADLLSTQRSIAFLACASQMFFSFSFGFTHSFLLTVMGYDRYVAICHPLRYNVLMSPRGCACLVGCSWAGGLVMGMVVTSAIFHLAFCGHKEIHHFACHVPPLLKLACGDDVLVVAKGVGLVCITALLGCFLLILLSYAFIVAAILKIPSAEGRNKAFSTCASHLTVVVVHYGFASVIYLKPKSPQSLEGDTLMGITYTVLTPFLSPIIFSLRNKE
Protocol: as §1, §2

[5] = system: human class II OR identified in the library screening; experiment: as above; conditions: for Fold improvement efficacy: maximal induction; for Detection threshold; Fold improvement efficacy: under detection threshold; for EC50: read-out: Potency, EC50 changed C-term
Protocol: as §1, §2

[6] = target: human class II OR identified in the library screening (Homo sapiens, UniProt Q8NG80)
Target sequence in this assay (Q8NG80 whole entry): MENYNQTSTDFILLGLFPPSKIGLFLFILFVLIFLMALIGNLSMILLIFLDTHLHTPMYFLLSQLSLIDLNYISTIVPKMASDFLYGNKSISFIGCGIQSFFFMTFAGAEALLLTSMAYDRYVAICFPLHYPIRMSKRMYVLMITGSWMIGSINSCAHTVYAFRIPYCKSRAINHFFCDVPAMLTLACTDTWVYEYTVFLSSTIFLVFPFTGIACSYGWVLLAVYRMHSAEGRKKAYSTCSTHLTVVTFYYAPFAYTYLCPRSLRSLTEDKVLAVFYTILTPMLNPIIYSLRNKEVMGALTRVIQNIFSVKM
Protocol: as §1, §2

[7] = target: human class II OR identified in the library screening (Homo sapiens, UniProt Q8NG85)
Target sequence in this assay (Q8NG85 whole entry, the tested form may be a part): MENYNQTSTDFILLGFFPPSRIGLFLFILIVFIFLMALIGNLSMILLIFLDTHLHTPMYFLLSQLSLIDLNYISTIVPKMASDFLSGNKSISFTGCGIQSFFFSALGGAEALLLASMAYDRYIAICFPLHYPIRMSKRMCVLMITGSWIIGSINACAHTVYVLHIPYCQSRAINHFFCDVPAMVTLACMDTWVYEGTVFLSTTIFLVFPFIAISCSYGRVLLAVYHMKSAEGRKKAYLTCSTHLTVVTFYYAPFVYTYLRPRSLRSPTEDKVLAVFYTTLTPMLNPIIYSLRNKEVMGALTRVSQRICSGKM
Protocol: as §1, §2

[8] = target: human class II OR identified in the library screening (Homo sapiens, UniProt Q8NG85); experiment: Confirmatory dose-response analysis of library-hit OR with cognate ligand, wild-type vs C-terminal domain SEQ ID NO: 221 (Table 17); conditions: read-out: Potency, EC50 changed C-term; OR2L3, modified C-terminus SEQ ID NO: 221 (SEQ ID NO: 412);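 also: Wild-type receptor sequences expressed from the pcDNA3.1(+) vector and compared with the C-terminally modified receptors in dose-response tests using each receptor's cognate ligand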
Target sequence in this assay (Q8NG85 1-296): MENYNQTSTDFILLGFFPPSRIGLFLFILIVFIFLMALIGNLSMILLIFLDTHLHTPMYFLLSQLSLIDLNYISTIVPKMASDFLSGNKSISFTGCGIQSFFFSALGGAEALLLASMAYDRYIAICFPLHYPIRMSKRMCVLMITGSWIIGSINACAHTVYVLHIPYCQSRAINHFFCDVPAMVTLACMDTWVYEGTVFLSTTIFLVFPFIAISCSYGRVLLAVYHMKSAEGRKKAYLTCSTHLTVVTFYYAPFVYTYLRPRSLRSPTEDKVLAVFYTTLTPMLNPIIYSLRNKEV
Protocol: as §1, §2

[9] = target: human class II OR identified in the library screening (Homo sapiens, UniProt Q8NG80); experiment: as above; conditions: read-out: Potency, EC50 changed C-term; OR2L5, modified C-terminus SEQ ID NO: 221 (SEQ ID NO: 413)
Target sequence in this assay (Q8NG80 1-296): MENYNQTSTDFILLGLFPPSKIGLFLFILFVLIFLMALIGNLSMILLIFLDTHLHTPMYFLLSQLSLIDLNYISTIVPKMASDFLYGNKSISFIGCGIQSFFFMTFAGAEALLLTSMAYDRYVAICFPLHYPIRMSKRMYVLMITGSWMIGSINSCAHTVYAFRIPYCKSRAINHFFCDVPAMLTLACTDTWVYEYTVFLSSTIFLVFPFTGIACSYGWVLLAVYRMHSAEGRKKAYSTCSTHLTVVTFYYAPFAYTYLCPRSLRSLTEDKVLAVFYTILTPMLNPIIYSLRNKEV
Protocol: as §1, §2

[10] = target: human class II OR identified in the library screening (Homo sapiens, UniProt Q9GZK7); experiment: as above
Target sequence in this assay (Q9GZK7 whole entry): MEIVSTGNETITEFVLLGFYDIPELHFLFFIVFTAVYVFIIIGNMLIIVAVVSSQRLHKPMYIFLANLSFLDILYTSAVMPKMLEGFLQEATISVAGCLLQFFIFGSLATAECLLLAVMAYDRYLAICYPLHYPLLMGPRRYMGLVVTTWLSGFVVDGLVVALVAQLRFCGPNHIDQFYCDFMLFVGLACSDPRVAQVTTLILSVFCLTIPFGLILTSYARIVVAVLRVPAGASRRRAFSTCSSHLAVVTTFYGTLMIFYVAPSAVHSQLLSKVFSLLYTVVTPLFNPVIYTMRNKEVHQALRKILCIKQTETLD
Protocol: as §1, §2

[11] = target: human class II OR identified in the library screening (Homo sapiens, UniProt Q9GZK7); experiment: as above; conditions: read-out: Potency, EC50 changed C-term; OR11A1, modified C-terminus SEQ ID NO: 221 (SEQ ID NO: 702)
Target sequence in this assay (Q9GZK7 1-298): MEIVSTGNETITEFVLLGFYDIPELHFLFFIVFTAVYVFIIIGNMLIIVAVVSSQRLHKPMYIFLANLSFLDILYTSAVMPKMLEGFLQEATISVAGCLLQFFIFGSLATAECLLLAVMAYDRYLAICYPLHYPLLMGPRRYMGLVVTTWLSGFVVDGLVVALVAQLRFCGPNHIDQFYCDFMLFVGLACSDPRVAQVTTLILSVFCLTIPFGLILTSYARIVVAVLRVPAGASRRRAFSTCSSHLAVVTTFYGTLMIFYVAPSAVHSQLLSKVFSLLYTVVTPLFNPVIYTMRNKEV
Protocol: as §1, §2

[12] = target: human class II OR identified in the library screening (Homo sapiens, UniProt Q8NGG4)
human class II OR identified in the library screening (Homo sapiens, UniProt Q8NGG4), sequence (Q8NGG4 whole entry): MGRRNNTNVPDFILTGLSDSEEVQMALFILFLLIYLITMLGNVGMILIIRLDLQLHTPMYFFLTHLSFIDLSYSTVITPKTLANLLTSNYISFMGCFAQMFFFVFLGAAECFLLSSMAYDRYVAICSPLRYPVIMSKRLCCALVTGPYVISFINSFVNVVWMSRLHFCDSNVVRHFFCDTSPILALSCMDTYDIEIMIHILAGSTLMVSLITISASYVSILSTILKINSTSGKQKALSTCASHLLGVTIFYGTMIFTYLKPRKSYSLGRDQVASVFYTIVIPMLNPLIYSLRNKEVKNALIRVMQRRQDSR
Protocol: as §1, §2

[13] = system: human class II OR identified in the library screening
Protocol: as §1, §2

[14] = target: human class II OR identified in the library screening (Homo sapiens, UniProt Q8NGN4); experiment: Confirmatory dose-response analysis of library-hit OR with cognate ligand, wild-type vs C-terminal domain SEQ ID NO: 221 (Table 17); conditions: OR10G9, wild-type sequence;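 also: Wild-type receptor sequences expressed from the pcDNA3.1(+) vector and compared with the C-terminally modified receptors in dose-response tests using each receptor's cognate ligand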
human class II OR identified in the library screening (Homo sapiens, UniProt Q8NGN4), sequence (Q8NGN4 whole entry, the tested form may be a part): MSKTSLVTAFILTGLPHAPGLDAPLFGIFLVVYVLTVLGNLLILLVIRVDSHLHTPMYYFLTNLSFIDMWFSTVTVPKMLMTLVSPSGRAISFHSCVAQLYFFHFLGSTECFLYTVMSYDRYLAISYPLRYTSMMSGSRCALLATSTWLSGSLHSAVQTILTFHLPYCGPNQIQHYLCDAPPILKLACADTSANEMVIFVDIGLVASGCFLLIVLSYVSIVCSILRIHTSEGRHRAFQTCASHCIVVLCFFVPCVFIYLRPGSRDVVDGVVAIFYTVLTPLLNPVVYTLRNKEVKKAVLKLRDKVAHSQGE
Protocol: as §1, §2

[15] = OR10K1, modified C-terminus SEQ ID NO: 221 vs wild-type
[16] = OR2L5, modified C-terminus SEQ ID NO: 221 vs wild-type
[17] = OR8H1, modified C-terminus SEQ ID NO: 221 vs wild-type
[18] = OR10G9, modified C-terminus SEQ ID NO: 221 (SEQ ID NO: 678)
[19] = OR10G9, modified C-terminus SEQ ID NO: 221 vs wild-type

Detection threshold; concentration for 2-fold induction, wild-type [1]: 9.4 µM | Detection threshold; concentration for 2-fold induction, wild-type [2]: no | EC50 [3]: 2200 nM | EC50 [4]: 7 µM
SMILES: CC(C)CCc1ccc2c(c1)OCC(=O)CO2 [7-(3-Methylbutyl)-benzo[b][1,4]dioxepin-3-one]
Fold improvement efficacy ([5]; OR10H1, modified C-terminus SEQ ID NO: 221 vs wild-type): 10.0 fold | Potency, Fold-improvement ([5]; OR10K1, EC50 modified C-terminus SEQ ID NO: 221 vs wild-type): 3.1 fold | Fold improvement efficacy [5, 15]: 12.4 fold | Detection threshold; Fold improvement efficacy [5, 15]: 63.4 fold

Detection threshold; concentration for 2-fold induction, wild-type [6]: 40.5 µM | Detection threshold; concentration for 2-fold induction, wild-type [7]: no | EC50 [8]: 86.2 µM | EC50 [9]: 4.76 µM
SMILES: CCOC(=O)C1CCCCC1 [Ethyl cyclohexanecarboxylate]
Fold improvement efficacy ([5]; OR2L3, modified C-terminus SEQ ID NO: 221 vs wild-type): 17.1 fold | Potency, Fold-improvement ([5]; OR2L5, EC50 modified C-terminus SEQ ID NO: 221 vs wild-type): 24.1 fold | Fold improvement efficacy [5, 16]: 2.6 fold | Detection threshold; Fold improvement efficacy [5, 16]: 158.8 fold

SMILES: CC1CCCC2(C)CCCCC12O (stereo not drawn) [Geosmin]
EC50 [10]: 6.8 µM | EC50 [11]: 2200 nM

Detection threshold; concentration for 2-fold induction, wild-type [12]: 6.9 µM | Detection threshold; concentration for 2-fold induction, changed C-term. [13]: 0.4 µM | EC50 ([5]; OR8H1, modified C-terminus SEQ ID NO: 221 (SEQ ID NO: 637)): 5.8 µM
SMILES: N#CC(=C1CCCCC1)c1ccccc1 [Peonile]
Potency, Fold-improvement ([5]; OR8H1, EC50 modified C-terminus SEQ ID NO: 221 vs wild-type): 2.95 fold | Fold improvement efficacy [5, 17]: 4.2 fold | Detection threshold; Fold improvement efficacy [5, 17]: 15.6 fold

SMILES: CCOc1cc(C)ccc1O [Ultravanil]
Potency, Fold-improvement ([5]; OR10G9, EC50 modified C-terminus SEQ ID NO: 221 vs wild-type): 4.8 fold | Detection threshold; concentration for 2-fold induction, changed C-term. [5, 18]: 1.7 µM | Fold improvement efficacy [5, 19]: 3.4 fold | Detection threshold; Fold improvement efficacy [5, 19]: 8.62 fold | EC50 [5, 18]: 19 µM | Detection threshold; concentration for 2-fold induction, wild-type [14]: 14.6 µM
